The source made the active and inactive calls. The rule behind the calls is not given here.
Experiments:
SH-SY5Y = assay: Neuroprotective activity against H2O2-induced cell death in human SH-SY5Y cells pretreated with compound followed by H2O2 stimulation and measured after 24 hrs by WST-8 assay; type: functional, cell-based
[1] = Neurotoxicity in human SH-SY5Y cells assessed as reduction in cell viability at 50 uM by WST-8 assay; type: toxicity, cell-based

| Compound | Activity (SH-SY5Y) | Activity [1] |
| --- | --- | --- |
| Cc1c(C)c2c(c(C)c1O)CCC(C)(C(=O)O)O2 (configuration not stated) | Active |  |
| O=C1C=C2Nc3cc(CCO)ccc3O[C@]23CCO[C@@]1(O)C3 (racemic) | Active | Non-Toxic |
| O=C1C=C2Nc3ccc(CCO)cc3O[C@]23CCO[C@@]1(O)C3 (racemic) | Active | Non-Toxic |
| OCCc1ccc(O)c(O)c1 [HYDROXYTYROSOL] | Active | Non-Toxic |
